Source: patent US20160250127A1, “USE OF A POLYOL IN THE REMINERALISATION OF ENAMEL” (ROQUETTE FRERES, priority 2013, published 2016)

Tested on: early carious lesions (enamel lesions of anterior maxillary teeth)
Assay: QLF analysis of enamel lesion remineralization, 6-month clinical study of sugar-free chewing gums
Format: in vivo, human
Settings: for stopping and reversing the oral white lesions, compared with the two control groups: 6-month study; for ΔF compared with gumbase group and control group without gum: after 3 months, P<0.01; for ΔF compared with the two control groups (gumbase and no gum) / ΔQ compared with the two control groups (gumbase and no gum): after 6 months, p<0.01
Source text: The QLF™ (Quantitative Light-induced Fluorescence) method is a dental diagnostic tool for the quantitative evaluation, in vivo and in vitro, of dental carious lesions. The apparatus is equipped with a camera and is connected to a computer (using a program specific to QLF™). The probe, which emits a blue light (xenon lamp+filter), is passed over the tooth tested, which retransmits this light in the form of fluorescence. […] This photograph or instantaneous image is then processed using the software of the QLF™ which then recreates a reconstituted image representing the carious lesion. With this method, the real-time fluorescent images are entered into the computer and stored in an image database. Quantitative analysis of the images allows the user to quantify parameters such as loss of minerals, lesion depth, lesion size, size of the spots present on the teeth and seriousness of the various lesions with great precision and repeatability. The QLF™ method is based on the autofluorescence of the teeth. When the teeth are illuminated by the high-intensity blue light, they will begin to emit light in the green part of the spectrum. The intensity of the fluorescence of the dental material is directly related to the mineral content of the enamel. Since the QLF™ method uses fluorescence to reveal the dental carie, the contrast between the demineralized enamel and the healthy enamel is increased. Thus, the absence of specular reflection in the images obtained by the QLF™ method facilitates the calculation of the size and seriousness of the lesion by the digital image processing system. Evaluation of the efficacy against caries of a sugar-free chewing gum containing maltitol sold by the applicant under the brand SweetPearl™ using a study model consisting of various appropriate control groups (gum and maltitol, gum and xylitol, gum without polyol and no chewing gum) and the QLF™ method. Children from 8 to 13 years old, in good health, were included in the study. Their parents were informed about the study by the teachers of the school and signed an informed consent form. […] In total, 420 pupils completed a six-month study. This study is a double-blind (subjects, caregivers and examiners), multicenter, parallel, random clinical study carried out in schools. The evaluation of the dental plaque uses the Silness method and the Loe index. The digital images were taken using a digital photographic apparatus, and those of the QLF™ method were taken using the QLF™ apparatus separately. Before this examination, all the dental plaque was removed from the surface of the teeth. All the procedures were supervised by qualified personnel (dentists/hygienists). The QLF™ method was used to monitor the evolution of demineralization and remineralization of the enamel lesions. During the visit, fluorescent images were taken of the six (or fewer) anterior maxillary teeth. An image of each tooth was taken at each visit in order to ensure that all the anterior teeth were photographed. All the images taken using the QLF™ apparatus were analyzed by an experienced individual in order to determine the “mineral condition” of each tooth, using proprietory software (QLF 2.00, Inspektor, The Netherlands). The QLF™ method makes it possible to control three distinct parameters: ΔF, the area of the lesion and ΔQ. ΔF is the percentage loss of fluorescence between the comparison of a healthy enamel and an identified lesion. The detection threshold for ΔF is 5%, which means that a loss of fluorescence below this threshold is considered to be background noise and therefore not significant. The area of the lesion is calculated by means of the pixels taken into account by the analysis software as representing the demineralized enamel (i.e. those with a loss of fluorescence of at least 5%). ΔQ is the product of ΔF multiplied by the area of the lesion and represents the volume of this lesion. […]

[1] = 3 Months, 2 chewing gums (up to 60% polyol) 5 times per day
[2] = 6 Months, 2 chewing gums (up to 60% polyol) 5 times per day
[3] = Baseline, children 8-13 years, mean ± spread

| Compound | QLF parameter Area (area of the lesion) [1] | QLF parameter ΔF (percentage loss of fluorescence) [1] | QLF parameter ΔQ (ΔF multiplied by area of the lesion) [1] | stopping and reversing the oral white lesions, compared with the two control groups | QLF parameter Area (area of the lesion) [2] | QLF parameter ΔF (percentage loss of fluorescence) [2] | QLF parameter ΔQ (ΔF multiplied by area of the lesion) [2] | QLF parameter ΔF (percentage loss of fluorescence) (Baseline, children 8-13 years) | QLF parameter ΔQ (ΔF multiplied by area of the lesion) (Baseline, children 8-13 years) | QLF parameter Area (area of the lesion) [3] | ΔF compared with gumbase group and control group without gum | ΔF compared with the two control groups (gumbase and no gum) | ΔQ compared with the two control groups (gumbase and no gum) |
| --- | --- | --- | --- | --- | --- | --- | --- | --- | --- | --- | --- | --- | --- |
| OC[C@@H](O)[C@@H](O[C@H]1O[C@H](CO)[C@@H](O)[C@H](O)[C@H]1O)[C@H](O)[C@@H](O)CO [Maltitol, maltitol] | 2.33 ± 1.90 | −8.78 ± 1.78 | −20.62 ± 18.97 | significantly more effective | 2.18 ± 1.63 | −8.42 ± 1.87 | −16.69 ± 15.15 | −9.38 ± 1.79 | −24.87 ± 23.06 | 2.47 ± 1.95 | significantly different | considerable differences | considerable differences |
| OC[C@@H](O)[C@H](O)[C@@H](O)CO [Xylitol, xylitol] | 2.43 ± 1.72 | −8.56 ± 2.02 | −22.10 ± 18.85 | significantly more effective | 2.31 ± 1.85 | −8.37 ± 1.78 | −18.19 ± 21.29 | −9.36 ± 1.92 | −25.95 ± 24.66 | 2.58 ± 1.91 | significantly different | considerable differences | considerable differences |
